Patent US20170281806A1, “CHELATOR-TARGETING LIGAND CONJUGATES FOR CARDIOVASCULAR IMAGING” (priority 2009, published 2017)
“Also recorded” adds a separate entry of the source.

Tests used:
LAD zone = assay: Ischemic memory, acute model: SPECT, ex vivo imaging, gamma well counting; type: in vivo, dog; details: for activity in the LAD zone relative to the normal LCx zone (gamma well counter), FIG. 3: after reperfusion
Protocol: FIG. 2. Time line of protocol concerning ischemic memory. LAD flow was reduced by 75% tightening of a snare occluder in dogs to produce resting ischemia for 90 minutes followed by full perfusion. 99mTc-EC-glucosamine was injected 15 minutes after reflow with SPECT performed at one hour post injection.
In two dogs, LAD flow was reduced by 75% by tightening a snare occluder to produce resting ischemia for 90 minutes followed by full reperfusion. 99mTc-EC-glucosamine was injected 15 minutes after reflow with SPECT imaging performed at one hour post injection. No perfusion images were acquired in these studies, however, the perfusion image shown from another dog in the same position on the table is fused with the 99mTc-EC-glucosamine images for orientation purposes only (FIG. 2).
The heart slides were divided into 96 segments and counted in a gamma well counter for microsphere flow, Tl-201 activity, and 99mTc-EC-glucosamine uptake.

LV = type: in vivo, dog
Text: In two dogs with right atrial pacing at 180 beats per minute (bpm) for 5 weeks, there was significant deterioration of cardiac ejection fraction at the 5 week timepoint with ejection fraction reduced to less than 25% in both cases.

myocardium [1] = type: in vivo; details: dog
Protocol: In this model, one of the major coronary arteries, either the left anterior descending (LAD) or left circumflex (LCx) coronary artery and all visible collateral vessels are tied off for 120 minutes, followed by complete reflow of the vessels. The chest is closed and the dogs are recovered and followed for up to 8 weeks with MR and SPECT imaging. […] Autoradiography and gamma well counting of 99mTc activity is not possible when using a 99mTc perfusion agent at the same time as 99mTc-EC-glucosamine. […] It is possible that the improved labeling efficiency in the 72 hour and 1 week scans resulted from changes that were made in the instructions for reconsistituting the 99mTc-EC-glucosamine kits. […] This dog will undergo further imaging at 4 weeks and again at 7.5/8 weeks as described above.

myocardium [2] = assay: Ischemic memory, chronic model; type: in vivo, dog; details: LAD flow reduced 90% for 90 minutes
Protocol: In a third dog, the protocol above was modified to examine 99mTc-EC-glucosamine uptake at later time points after reperfusion. In addition, the severity of the ischemic insult was increased such that LAD flow was reduced by 90% rather than 75% for 90 minutes. 99mTc-EC-glucosamine uptake was assessed at 48 hours and one week after reperfusion.

Molecule | activity in the LAD zone relative to the normal LCx zone (gamma well counter), FIG. 3 (LAD zone) | blood pool activity (LV; dog, in vivo) | uptake in the heart (SPECT) (myocardium [1]; 48 hours post myocardial infarction) | uptake in the posterior wall (SPECT) (myocardium [1]; LCx occlusion, 72 hours post infarction, imaging 2 hours after injection) | uptake in the myocardium (SPECT) (myocardium [1]; baseline before infarction) | uptake by in vivo SPECT (LAD zone; LAD flow reduced 75% for 90 minutes, injected 15 minutes after reflow, SPECT one hour post injection) | uptake in mildly ischemic areas (LAD zone; flow reduced by 20-40% of normal) | activity relative to the normal zone, central ischemic zone (LAD zone; flow reduced by 60-80% of normal) | uptake in central and border zone ischemic areas (LAD zone; segments by degree of flow reduction during ischemia, FIG. 4) | uptake after reperfusion (myocardium [2]; 48 hours after reperfusion) | uptake after reperfusion (myocardium [2]; one week after reperfusion) | uptake in the LV (SPECT) (LV; dogs, right atrial pacing 180 bpm for 5 weeks)
[201Tl] [Tl-201, thallium-201, reference compound] | slightly reduced | – | – | – | – | – | – | – | – | – | – | –
99mTc-ethylenedicysteine (EC) glucosamine [99mTc-EC-glucosamine] | significantly higher | significant amount of blood pool activity | small focal hot spot | large amount of 99mTc-EC-glucosamine uptake | no 99mTc-EC-glucosamine uptake observed in the myocardium; also recorded: no 99mTc-EC-glucosamine was observed in the myocardium | focal 99mTc-EC-glucosamine hot spot in the apex of the heart; also recorded: focal hotspot | enhanced 99mTc-EC-glucosamine uptake | greater than 150% | enhanced | uptake was observed | no uptake | –
CCOCC[PH+](CCOCC)CC[PH+](CCOCC)CCOCC.CCOCC[PH+](CCOCC)CC[PH+](CCOCC)CCOCC.[O]=[99Tc]=[O] [tetrofosmin, technetium Tc-99m tetrofosmin, reference compound] | – | – | – | – | – | – | – | – | – | – | – | not completely homogenous
